Results on eleven compounds are retold here after ChEMBL document CHEMBL1201862, “PubChem BioAssay data set” (2004).

Each structure is given as a SMILES string.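 Each compound was tested at five concentrations against cells in 96-well plates for 48 hours. Here, GI50 denotes the concentration required for 50% inhibition of growth.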 The source made the active and inactive calls. Rule as the data show it: active = GI50 up to about 1.1 µM and inactive = higher. Some results are limits rather than exact numbers.

Among the test systems are SK-MEL-28; SF-539; NCI-H226; SNB-75; UO-31; NCI-H460; DU-145; SN12C; A498; OVCAR-4; UACC-257; 786-0; HT-29; TK-10; MDA-MB-435; EKVX; IGROV-1; K562; SR; RPMI-8226.
Holding throughout (experiment): NCI-60 cell line screen, 48 h

For `CC1(CC2=C(C(=O)NCCO[Si](C)(C)C(C)(C)C)C3(OCCO3)C2=O)OCCO1`, the GI50 with SK-MEL-28 was > 100 µM (inactive); in the assay with SF-539, > 100 µM (inactive); with NCI-H226 it was 71.1 µM (inactive); in the assay with SNB-75, 36.5 µM (inactive); in the assay with UO-31, > 100 µM (inactive); in the assay on NCI-H460 it was > 100 µM (inactive). For the same compound, the GI50 in the assay with DU-145, with SN12C, with A498, in the assay on OVCAR-4, with UACC-257 and in the assay on 786-0 was > 100 µM (inactive) each time. Moreover, the GI50 in the assay on HT-29 was > 100 µM (inactive); in the assay on TK-10, > 100 µM (inactive); in the assay on MDA-MB-435, > 100 µM (inactive); with EKVX it was > 100 µM (inactive); in the assay with IGROV-1 it was 92.7 µM (inactive).

In the case of `COC(=O)c1cc(C)ccc1CC(Cc1ccccc1C)C(=O)OC` (stereo unspecified), the GI50 in the assay with SK-MEL-28 is 88.1 µM (inactive); with SF-539, > 100 µM (inactive); in the assay on NCI-H226, 81.7 µM (inactive); in the assay with SNB-75, > 100 µM (inactive); with UO-31, 31 µM (inactive); in the assay with NCI-H460, 78 µM (inactive). For the same compound, the GI50 was > 100 µM (inactive) in the assay on DU-145; 44.9 µM (inactive) in the assay with SN12C; 60.4 µM (inactive) with A498; 29.7 µM (inactive) with OVCAR-4; 10.6 µM (inactive) with K562; 27 µM (inactive) with UACC-257. Also, the GI50 was 89.5 µM (inactive) in the assay on 786-0; 22 µM (inactive) with HT-29; > 100 µM (inactive) in the assay on TK-10; 18.1 µM (inactive) in the assay with MDA-MB-435; 18.7 µM (inactive) with EKVX; 45.9 µM (inactive) in the assay on IGROV-1.

As to `Oc1ccc(Cl)cc1/N=N\c1c(O)ccc2ccccc12`, the GI50 with SR, in the assay with SK-MEL-28, in the assay with NCI-H226, in the assay on SNB-75, in the assay with RPMI-8226 and in the assay on UO-31 was > 100 µM (inactive) throughout. The GI50 in the assay on SN12C, with OVCAR-4, in the assay on K562, in the assay on UACC-257, in the assay on 786-0 and in the assay with HT-29 was > 100 µM (inactive) in each case. For the same compound, the GI50 with TK-10, in the assay with MDA-MB-435, in the assay with EKVX and with IGROV-1 was > 100 µM (inactive) throughout.

For `N#CC1CCN2N=C(c3ccccc3)SC12c1ccccc1` (stereo unspecified), the GI50 with SR is 37.1 µM (inactive); in the assay on SK-MEL-28 it was > 100 µM (inactive); in the assay with SF-539 it was 78.2 µM (inactive); in the assay with NCI-H226 it was 58.1 µM (inactive); with SNB-75, > 100 µM (inactive); with RPMI-8226, 26.3 µM (inactive). Moreover, the GI50 in the assay with UO-31 is 35.1 µM (inactive); with NCI-H460 it was 26.1 µM (inactive); with SN12C, 40.4 µM (inactive); in the assay on OVCAR-4, 76.7 µM (inactive); in the assay with K562 it was 28.6 µM (inactive); in the assay with UACC-257, 39.3 µM (inactive). The GI50 in the assay on 786-0 is 89.1 µM (inactive); in the assay on HT-29 it was 32.1 µM (inactive); with TK-10 it was > 100 µM (inactive); in the assay with MDA-MB-435 it was 61.4 µM (inactive); in the assay on EKVX, 18.8 µM (inactive); in the assay on IGROV-1, > 100 µM (inactive).

Consider `Cc1nnc(N2C(=O)C(=Cc3ccc(Cl)cc3)N=C2c2ccc(Cl)cc2)nc1/C=C\c1ccc(N(C)C)cc1`, for which the GI50 in the assay on SK-MEL-28 is > 100 µM (inactive); in the assay with NCI-H226, > 100 µM (inactive); with SNB-75, > 100 µM (inactive); with RPMI-8226, 72.3 µM (inactive); with UO-31 it was 50.8 µM (inactive); in the assay with NCI-H460, > 100 µM (inactive). For the same compound, the GI50 with DU-145 was > 100 µM (inactive); with SN12C, > 100 µM (inactive); in the assay on A498, > 100 µM (inactive); in the assay on OVCAR-4, > 100 µM (inactive); in the assay on K562 it was 73.3 µM (inactive); in the assay with UACC-257, > 100 µM (inactive). For the same compound, the GI50 in the assay on 786-0, in the assay on HT-29, in the assay on TK-10, in the assay on MDA-MB-435, with EKVX and in the assay on IGROV-1 was > 100 µM (inactive) throughout.

In the case of `COc1cc(N(CCC#N)CCC#N)ccc1C(/N=N/c1cccc(C)c1)=N\NC(=O)c1ccc(C)cc1`, the GI50 in the assay on SK-MEL-28 is > 100 µM (inactive); in the assay on NCI-H226, > 100 µM (inactive); in the assay with RPMI-8226, 35.7 µM (inactive); in the assay with UO-31 it was > 100 µM (inactive); in the assay with NCI-H460, 25.9 µM (inactive); in the assay on DU-145, > 100 µM (inactive). For the same compound, the GI50 with SN12C was > 100 µM (inactive); in the assay on A498, 4.78 µM (inactive); in the assay on OVCAR-4, > 100 µM (inactive); in the assay on K562, > 100 µM (inactive); in the assay with UACC-257, > 100 µM (inactive); with 786-0, > 100 µM (inactive). The GI50 in the assay on HT-29 is > 100 µM (inactive); in the assay on TK-10, 57.7 µM (inactive); with MDA-MB-435, > 100 µM (inactive); with EKVX, 87.7 µM (inactive); in the assay on IGROV-1, > 100 µM (inactive).

On to `CCOC(=O)C(C(=O)COC(C)(C)C)[C@@H]1C=C[C@H](OC(C)=O)C1` (stereo partly specified), for which the GI50 in the assay with SK-MEL-28, with SF-539, in the assay on NCI-H226, in the assay on SNB-75, in the assay on RPMI-8226 and in the assay with UO-31 was > 100 µM (inactive) in each case. Also, the GI50 with NCI-H460, in the assay on SN12C, in the assay with A498, with OVCAR-4, in the assay with K562 and in the assay on UACC-257 was > 100 µM (inactive) each time. Moreover, the GI50 in the assay on 786-0, with HT-29, in the assay with MDA-MB-435 and with EKVX was > 100 µM (inactive) in each case.

On to `COC(=O)Cc1c(C2=Nc3ccccc3C2(O)CC(=O)OC)[nH]c2ccccc12` (stereo unspecified), for which the GI50 in the assay with SK-MEL-28 was 61.5 µM (inactive); in the assay on SF-539 it was 29.6 µM (inactive); in the assay on NCI-H226 it was > 100 µM (inactive); in the assay with SNB-75, > 100 µM (inactive); in the assay on RPMI-8226, 25.4 µM (inactive); with UO-31, 68.5 µM (inactive). Further, the GI50 with NCI-H460 is > 100 µM (inactive); in the assay with DU-145, > 100 µM (inactive); in the assay on SN12C, 68.5 µM (inactive); with A498, > 100 µM (inactive); with K562 it was 27 µM (inactive); with UACC-257 it was > 100 µM (inactive). Further, the GI50 in the assay on 786-0 is 41.5 µM (inactive); in the assay with HT-29, > 100 µM (inactive); with TK-10, > 100 µM (inactive); in the assay on MDA-MB-435 it was > 100 µM (inactive); in the assay with EKVX, 36.6 µM (inactive); in the assay on IGROV-1 it was 1.09 µM (active).

For `S=c1oc(CCCCCCCCc2nn(CNc3ccc(Cl)cc3)c(=S)o2)nn1CNc1ccc(Cl)cc1`, the GI50 in the assay with SK-MEL-28 is 20.3 µM (inactive); in the assay on NCI-H226, > 100 µM (inactive); in the assay on SNB-75 it was > 100 µM (inactive); in the assay on RPMI-8226, 6.78 µM (inactive); in the assay on UO-31 it was 97.3 µM (inactive); in the assay on NCI-H460, > 100 µM (inactive). Further, the GI50 was > 100 µM (inactive) in the assay on DU-145; > 100 µM (inactive) in the assay on SN12C; > 100 µM (inactive) with A498; > 100 µM (inactive) with OVCAR-4; 6.89 µM (inactive) in the assay on K562; 40 µM (inactive) in the assay on UACC-257. For the same compound, the GI50 in the assay with 786-0 is > 100 µM (inactive); in the assay on HT-29, > 100 µM (inactive); in the assay on TK-10, > 100 µM (inactive); in the assay with MDA-MB-435, 10.4 µM (inactive); with EKVX it was > 100 µM (inactive); with IGROV-1 it was > 100 µM (inactive).

With `O=[N+]([O-])c1ccc2nc3c(nc2c1)-c1c2ccccc2cc2cccc-3c12`, the GI50 was 51.4 µM (inactive) in the assay with SK-MEL-28; 15 µM (inactive) in the assay with SF-539; 12.7 µM (inactive) in the assay with NCI-H226; 17.7 µM (inactive) in the assay with RPMI-8226; 12.1 µM (inactive) in the assay with UO-31; 19.7 µM (inactive) in the assay on NCI-H460. The GI50 with DU-145 is 28.2 µM (inactive); in the assay on SN12C, 10.7 µM (inactive); in the assay with A498, 0.427 µM (active); in the assay on OVCAR-4, 24.3 µM (inactive); with K562, 6.1 µM (inactive); with UACC-257, 18.8 µM (inactive). In addition, the GI50 in the assay on 786-0 is 7.62 µM (inactive); in the assay on HT-29 it was 5.31 µM (inactive); with TK-10, 25.1 µM (inactive); with MDA-MB-435, 27.8 µM (inactive); with EKVX it was 26.4 µM (inactive); with IGROV-1, 4.43 µM (inactive).

Regarding `COc1cc(OC)c2c(=O)c(OC)c(-c3ccc4c(c3)OCO4)oc2c1OC`, the GI50 with SK-MEL-28, with SF-539, in the assay on NCI-H226, in the assay with SNB-75, in the assay with UO-31 and in the assay on NCI-H460 was > 100 µM (inactive) throughout. The GI50 with DU-145 is 81.1 µM (inactive); in the assay on SN12C, > 100 µM (inactive); in the assay on A498 it was > 100 µM (inactive); in the assay with K562 it was > 100 µM (inactive); in the assay on UACC-257, > 100 µM (inactive); in the assay with 786-0 it was > 100 µM (inactive). Besides, the GI50 with HT-29 was > 100 µM (inactive); in the assay on TK-10 it was > 100 µM (inactive); in the assay with MDA-MB-435 it was > 100 µM (inactive); in the assay on EKVX it was 47 µM (inactive); in the assay on IGROV-1 it was > 100 µM (inactive).
